The text below walks through data of PubChem BioAssay (NCI).

Common to all, as to assay: inhibition of tumour cell growth, NCI panel, 48 h
Experiment [1] concerns HCC-2998 colon.
Experiment [2] deals with CCRF-CEM leukemia.
The test system of experiment [3] is EKVX NSCLC.
In experiment [4] the test system is NCI-H460 lung.
Experiment [5] relates to T-47D breast.
In experiment [6] the test system is NCI/ADR-RES ovarian.
In experiment [7] the test system is SK-OV-3 ovarian.
Experiment [8] deals with MCF7 breast.
For experiment [9], the system named is CAKI-1 renal.
In experiment [10] the test system is K-562 leukemia.
Experiment [11] has as its system UACC-62 melanoma.

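Cultured in 96-well plates, cells were exposed to test compound for 48 hours across five concentrations. TGI marks complete inhibition of growth.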

In the case of `Cc1cc2[nH]c3c(C#N)c(-c4ccccc4)c(N=Nc4cccc(C(F)(F)F)c4)c(=O)n3c2cc1C`, the TGI in experiment [1], in [2], in experiment [3], in [4], in experiment [5] and in [6] was above 100 µM in each case. For the same molecule, the TGI in experiment [7], in experiment [8] and in experiment [9] was above 100 µM each time.

Regarding `C/C(=N\Nc1ccc([N+](=O)[O-])cc1[N+](=O)[O-])c1ccc2ccccc2n1`, the TGI in [3], in experiment [10], in experiment [4], in experiment [5], in [11] and in experiment [6] was above 100 µM throughout. In addition, the TGI in [7], in experiment [8] and in [9] was above 100 µM in each case.

Turning to `CC(NS(C)(=O)=O)c1ccccc1` (centres undefined), the TGI in experiment [1], in [2], in [10], in experiment [4], in experiment [5] and in experiment [11] was above 100 µM each time. For the same molecule, the TGI in [6], in experiment [8] and in experiment [9] was above 100 µM each time.

For `O=C(O)CSCC(=O)Nc1ccc2cccc3c2c1CC3`, the TGI in [1], in experiment [2], in experiment [3], in experiment [10], in [5] and in experiment [11] was above 100 µM in each case. Further, the TGI in experiment [6], in experiment [8] and in experiment [9] was above 100 µM each time.

Consider `COP(C)(=O)/C(Cc1ccccc1)=N\O` (centres undefined), for which the TGI in [1], in experiment [2], in experiment [10], in experiment [4], in [5] and in [6] was above 100 µM throughout. Moreover, the TGI in experiment [7], in experiment [8] and in experiment [9] was above 100 µM each time.

Take `CC[N+]1(C)CCC(O)(c2ccc(Cl)cc2)C(C(=O)c2ccc(Cl)cc2)C1` (centres undefined): the TGI in experiment [1] came to 36.3 µM; in experiment [2], 19.7 µM; in experiment [10], 17.2 µM; in [4] it was 63.8 µM; in experiment [5], 17.8 µM; in [11], 27.9 µM. Also, the results for the TGI in experiment [6], in experiment [7] and in experiment [8] were 57.1 µM, 27.7 µM and 2.71 µM, respectively.

As to `O=C(c1cc(Cl)cc(Cl)c1)N(C(=S)OC12CC3CC(CC(C3)C1)C2)c1ccccc1`, the TGI was above 100 µM in [1]; 49.9 µM in experiment [2]; 69.1 µM in experiment [3]; above 100 µM in experiment [4]; above 100 µM in experiment [5]; above 100 µM in experiment [11]. Besides, the TGI in [6], in [7], in experiment [8] and in experiment [9] was above 100 µM throughout.

In the case of `O=P(O)(O)C(O)/C=C/c1ccccc1` (centres undefined), the TGI in experiment [1], in experiment [3], in experiment [10], in [4], in [5] and in experiment [11] was above 100 µM in each case. For the same molecule, the TGI in experiment [6], in experiment [7], in [8] and in experiment [9] was above 100 µM throughout.

In the case of `CN(C)CCNc1ccc([N+](=O)[O-])c2nc3ccccc3c(N)c12`, the TGI is above 10 µM in [2]; 5.4 µM in [3]; 5.35 µM in [10]; 1.66 µM in experiment [4]; 3.7 µM in experiment [5]; 3.54 µM in [11]. The TGI in experiment [6] was 2.45 µM; in experiment [7], 1.33 µM; in [8], above 10 µM; in [9], above 10 µM.

For the molecule `CC1C(c2ccc3c(c2)OCO3)c2cc3c(cc2OC1N1CCCC1)OCO3` (centres undefined), the TGI in [1] was 49.1 µM; in [2] it was 76.1 µM; in [3], above 100 µM; in [10], 61.4 µM; in experiment [4] it was above 100 µM; in experiment [5], above 100 µM. Further, the TGI was above 100 µM in [11], 87.7 µM in experiment [6], above 100 µM in [8] and 38.6 µM in [9].

Consider `CCP(=O)(CC)C(Cl)(Cl)C(O)C(C)(C)C` (centres undefined), for which the TGI in experiment [1], in [2], in [10], in experiment [4], in [5] and in experiment [6] was above 100 µM each time. For the same molecule, the TGI in [7], in [8] and in experiment [9] was above 100 µM in each case.

Regarding `CC(=O)OC1CC2CCC1(C)C2(C)C` (centres undefined), the TGI in [1], in [2], in experiment [10], in experiment [4], in experiment [5] and in [11] was above 100 µM in each case. Further, the TGI in experiment [6], in experiment [7] and in experiment [8] was above 100 µM in each case.

`O=C(N/N=C1\CCc2ccccc2C1)N/N=C1\CCc2ccccc2C1`: the TGI in experiment [1], in [2], in [3], in [10], in [4] and in experiment [5] was above 10 µM in each case. Moreover, the TGI in experiment [6], in [8] and in experiment [9] was above 10 µM throughout.

Turning to `COC(=O)C1=Nc2c(C)nn(-c3ccccc3)c2N=C(c2ccc(C)cc2)C1`, the TGI in [1], in experiment [10], in experiment [5], in experiment [11], in experiment [6] and in experiment [7] was above 10 µM throughout. For the same molecule, the TGI in [8] and in [9] was above 10 µM each time.
